In patent US20260008783A1, “MODULATORS OF FSHR AND USES THEREOF” (Celmatix Inc., priority 2022, published 2026):
Values joined by “and” are separate entries in the source; they are usually repeats but may differ in a detail not shown here. Equal values may be shown once.

Target: T1, Follicle Stimulating Hormone Receptor (FSHR) (Homo sapiens, UniProt P23945)
T1 construct: HA (N); expressed in transfected cells; host or cells: CHO-K1, transient transfection, pHM6 vector (CMV promoter)
T1 sequence (P23945 18-695): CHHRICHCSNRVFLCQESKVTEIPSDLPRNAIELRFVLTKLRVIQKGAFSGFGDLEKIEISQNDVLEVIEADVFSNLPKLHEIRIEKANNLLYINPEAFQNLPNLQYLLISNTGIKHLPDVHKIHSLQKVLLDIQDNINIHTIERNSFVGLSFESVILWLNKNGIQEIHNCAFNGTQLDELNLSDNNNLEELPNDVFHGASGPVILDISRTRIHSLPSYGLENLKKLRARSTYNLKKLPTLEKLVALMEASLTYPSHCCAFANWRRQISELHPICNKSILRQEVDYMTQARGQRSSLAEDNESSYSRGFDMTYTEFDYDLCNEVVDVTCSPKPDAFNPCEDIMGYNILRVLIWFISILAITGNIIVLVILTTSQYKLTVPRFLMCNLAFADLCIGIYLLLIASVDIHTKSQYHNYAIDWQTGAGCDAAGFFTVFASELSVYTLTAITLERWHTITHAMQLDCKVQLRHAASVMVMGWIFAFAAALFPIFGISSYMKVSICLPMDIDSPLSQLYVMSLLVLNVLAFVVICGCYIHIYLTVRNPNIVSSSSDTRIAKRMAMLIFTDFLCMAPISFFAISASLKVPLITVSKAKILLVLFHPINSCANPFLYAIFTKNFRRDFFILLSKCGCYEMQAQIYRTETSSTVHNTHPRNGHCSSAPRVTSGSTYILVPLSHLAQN
Experiment: HTRF cAMP agonist assay, FSHR, transiently transfected CHO-K1 cells
Type: cell-based
Conditions: CHO-K1 cells transiently expressing human FSHR, read-out: IC50 FSHR LANCE CAMP

IC50	Compound
1.29 nM	COc1cc2c(cc1-c1cncc(C(N)=O)c1)-c1c(c(C(=O)N3CCOCC3(C)C)nn1-c1ccsc1)CC2 [Compound 9-21, 5-[3-(3,3-dimethylmorpholine-4-carbonyl)-7-methoxy-1-(3-thienyl)-4,5-dihydrobenzo[g]indazol-8-yl]pyridine-3-carboxamide]
34.9 nM	COc1cc2c(cc1-c1cncc(C(N)=O)c1)-c1c(c(C(=O)N3[C@@H](C)CNC[C@@H]3C)nn1-c1cc(Cl)cc(Cl)c1)CC2 [Compound 8-22]
991 nM	COc1cc2c(cc1-c1cncc(C(N)=O)c1)-c1c(c(C(=O)N(C)C(C)(C)CO)nn1-c1cc(Cl)cc(Cl)c1)CC2 [Compound 8-10]
180 nM	COc1cc2c(cc1-c1ccn(C)n1)-c1c(c(C(=O)N(C)C(C)(C)C)nn1-c1cc(Cl)cc(Cl)c1)CC2 [Compound 6-04, N-tert-butyl-1-(3,5-dichlorophenyl)-7-methoxy-N-methyl-8-(1-methylpyrazol-3-yl)-4,5-dihydrobenzo[g]indazole-3-carboxamide]
0.976 nM	COc1cc2c(cc1-c1cncc(C(N)=O)c1)-c1c(c(CN3CCOCC3(C)C)nn1-c1cc(Cl)cc(Cl)c1)CC2 [Compound 9-06]
14.8 nM	COc1cc2c(cc1-c1cncc(C(N)=O)c1)-c1c(c(C(=O)N3CCOCC3(C)C)nn1-c1ccncn1)CC2 [Compound 10-10]
3.09 nM	COc1cc2c(cc1-c1cncc(C(N)=O)c1)-c1c(c(C(=O)N3COCC3(C)C)nn1-c1cc(Cl)cc(Cl)c1)SC2 [Compound 12-15]
1.8 nM and 2.46 nM	CCN(C(=O)c1nn(-c2cc(Cl)cc(Cl)c2)c2c1CCc1cc(OC)c(-c3cncc(C(N)=O)c3)cc1-2)C(C)(C)C [Compound 8-41]
381 nM	CC1(C)C(=O)NCCN1C(=O)c1nn(-c2cc(Cl)cc(Cl)c2)c2c1CCc1ccc(-c3cncc(C(N)=O)c3)cc1-2 [Compound 15-04, 5-[1-(3,5-dichlorophenyl)-3-(2,2-dimethyl-3-oxo-piperazine-1-carbonyl)-4,5-dihydrobenzo[g]indazol-8-yl]pyridine-3-carboxamide]
701 nM	COc1cc2c(cc1-c1cncc(C(N)=O)c1)-c1c(c(C(=O)N3CCOCC3(C)C)nn1C(C)C)CC2 [Compound 9-12]
477 nM	COc1cc2c(cc1-c1cccnc1)-c1c(c(C(=O)N3CCNC(=O)C3(C)C)nn1-c1ccccn1)CC2 [Compound 15-02]
3.99 nM	CCN(CC)C(=O)c1nn(-c2cc(Cl)cc(Cl)c2)c2c1CCc1cc(OC)c(-c3cncc(C(N)=O)c3)cc1-2 [Compound 8-35]
3.06 nM	COc1cc2c(cc1-c1cncc(C(N)=O)c1)-c1c(c(C(=O)N3CCOC3(C)C)nn1-c1cc(Cl)cc(Cl)c1)CC2 [Compound 8-51, 5-(1-(3,5-dichlorophenyl)-3-(2,2-dimethyloxazolidine-3-carbonyl)-7-methoxy-4,5-dihydro-1H-benzo[g]indazol-8-yl)nicotinamide]
586 nM	COc1cc2oc3c(C(=O)N(C)C(C)(C)C)nn(-c4ccsc4)c3c2cc1-c1cncc(C(N)=O)c1 [Compound 4-04]
6.72 nM	COc1cc2c(cc1-c1cncc(C(N)=O)c1)-c1c(c(C(=O)N3CCOCC3(C)C)nn1-c1cc(Cl)cc(Cl)c1)SC2 [Compound 3-01, 5-[1-(3,5-dichlorophenyl)-3-(3,3-dimethylmorpholine-4-carbonyl)-7-methoxy-5H-isothiochromeno[4,3-c]pyrazol-8-yl]pyridine-3-carboxamide]
42 nM	CCCCn1nc(C(=O)N2CCOCC2(C)C)c2c1-c1cc(-c3cncc(C(N)=O)c3)c(OC)cc1CC2 [Compound 9-15, 5-[1-butyl-3-(3,3-dimethylmorpholine-4-carbonyl)-7-methoxy-4,5-dihydrobenzo[g]indazol-8-yl]pyridine-3-carboxamide]
494 nM	COc1cc2c(cc1-c1ccn(C)n1)-c1c(c(C(=O)N(C)C(C)(C)C)nn1-c1cc(Cl)cc(Cl)c1)C2 [Compound 5-06, N-tert-butyl-1-(3,5-dichlorophenyl)-6-methoxy-N-methyl-7-(1-methylpyrazol-3-yl)-4H-indeno[1,2-c]pyrazole-3-carboxamide]
8.99 nM	COc1cc2c(cc1-c1cncc(C(N)=O)c1)-c1c(c(C(=O)N3CNC(=O)C3(C)C)nn1-c1cc(Cl)cc(Cl)c1)CC2 [Compound 8-72]
15.4 nM	COc1cc2c(cc1-c1cncc(C(N)=O)c1)-c1c(c(C(=O)N3[C@H](C)CNC[C@@H]3C)nn1-c1cc(Cl)cc(Cl)c1)S(=O)(=O)C2 [Compound 12-05]
457 nM	COc1cc2c(cc1-c1cncc(C(N)=O)c1)-c1c(c(C(=O)N3CCC4CNCCC43)nn1-c1cc(Cl)cc(Cl)c1)CC2 (stereo not drawn) [Compound 8-23, 5-[3-(2,3,3a,4,5,6,7,7a-octahydropyrrolo[3,2-c]pyridine-1-carbonyl)-1-(3,5-dichlorophenyl)-7-methoxy-4,5-dihydrobenzo[g]indazol-8-yl]pyridine-3-carboxamide]

IC50	Compound
27.3 nM	COc1cc2c(cc1-c1cncc(C(N)=O)c1)-c1c(c(C(=O)N3C[C@@H]4C[C@H]3CO4)nn1-c1cc(Cl)cc(Cl)c1)CC2 [Compound 8-29]
9.79 nM	COc1cc2c(cc1-c1cncc(C(N)=O)c1)-c1c(c(C(=O)N3CCC(=O)NCC3(C)C)nn1-c1cc(Cl)cc(Cl)c1)CC2 [Compound 8-04A, 5-[1-(3,5-dichlorophenyl)-3-(2,2-dimethyl-5-oxo-1,4-diazepane-1-carbonyl)-7-methoxy-4,5-dihydrobenzo[g]indazol-8-yl]pyridine-3-carboxamide]
3.81 nM	CC1(C)COCCN1C(=O)c1nn(-c2cc(Cl)cc(Cl)c2)c2c1CCc1ccc(-c3cncc(C(N)=O)c3)cc1-2 [Compound 9-02]
4560 nM	COc1cc2c(cc1-c1cncc(C(N)=O)c1)-c1c(c(C(=O)N(C)C(C)(C)C)nn1-c1cc(Cl)cc(Cl)c1)[S+]([O-])C2 (stereo not drawn) [Compound 3-07, N-tert-butyl-8-(5-carbamoyl-3-pyridyl)-1-(3,5-dichlorophenyl)-7-methoxy-N-methyl-4-oxo-5H-isothiochromeno[4,3-c]pyrazole-3-carboxamide]
5380 nM	O=C(c1nn(-c2ccccn2)c2c1CCc1ccc(-c3cccnc3)cc1-2)N1CCNC(=O)C12CC2 [Compound 8-81]
1.98 nM	COc1cc2c(cc1-c1cncc(C(N)=O)c1)-c1c(c(C(=O)N(C)C(C)(C)C)nn1-c1cc(Cl)cc(Cl)c1)OC2 [Compound 2-02]
48.4 nM	COc1cc2c(cc1-c1cncc(C(N)=O)c1)-c1c(c(C(=O)N3CCCC3)nn1-c1cc(Cl)cc(Cl)c1)CC2 [Compound 8-37]
15500 nM	COc1cc(Cl)cc(-n2ncc3c2-c2cc(-c4cncc(C(N)=O)c4)c(OC)cc2CC3)c1 [Compound 9-24]
370 nM	COc1cc2c(cc1-c1ccncc1)-c1c(c(C(=O)N3CCOCC3(C)C)nn1-c1cc(F)cc(F)c1)CC2 [Compound 15-09, [1-(3,5-difluorophenyl)-7-methoxy-8-(4-pyridyl)-4,5-dihydrobenzo[g]indazol-3-yl]-(3,3-dimethylmorpholin-4-yl)methanone]
39.3 nM	COc1cc2c(cc1-c1cncc(C(N)=O)c1)-c1c(c(C(=O)NC(C)(C)CO)nn1-c1cc(Cl)cc(Cl)c1)CC2 [Compound 8-52A]
94.1 nM	COc1cc2c(cc1-c1cncc(C(N)=O)c1)-c1c(c(C(=O)N3CCOCC3(C)C)nn1C1CCCCC1)CC2 [Compound 9-16]
22.5 nM	COc1cc2c(cc1-c1cncc(C(N)=O)c1)-c1c(c(C(=O)N3CCOCC3(C)C)nn1-c1cccnn1)CC2 [Compound 10-07]
92.4 nM	CCCn1nc(C(=O)N2CCOCC2(C)C)c2c1-c1cc(-c3cncc(C(N)=O)c3)c(OC)cc1CC2 [Compound 9-13, 5-[3-(3,3-dimethylmorpholine-4-carbonyl)-7-methoxy-1-propyl-4,5-dihydrobenzo[g]indazol-8-yl]pyridine-3-carboxamide]
1860 nM	COc1cc2oc3c(C(=O)N4CCOCC4(C)C)n(-c4ccsc4)nc3c2cc1-c1cncc(C(N)=O)c1 [Compound 4-03A]
20.3 nM	COc1cc2c(cc1-c1cncc(C(N)=O)c1)-c1c(c(C(=O)N3CCNC(=O)C3(C)C)nn1-c1cc(Cl)cc(Cl)c1)CC2 [Compound 8-26b]
12.5 nM	COc1cc(C(N)=O)cc(-c2cc3c(cc2OC)CCc2c(C(=O)N(C)C(C)(C)C)nn(-c4cc(Cl)cc(Cl)c4)c2-3)n1 [Compound 11-01]
70.4 nM	COc1cc2c(cc1-c1cncc(C(N)=O)c1)-c1c(c(C(=O)N3C4CC3CN(C)C4)nn1-c1cc(Cl)cc(Cl)c1)CC2 [Compound 8-16]
3.89 nM	COc1cc2c(cc1-c1cncc(C(N)=O)c1)-c1c(c(C(=O)N3CCNC[C@H]3C(F)(F)F)nn1-c1cc(Cl)cc(Cl)c1)CC2 [Compound 8-57, 5-[1-(3,5-dichlorophenyl)-7-methoxy-3-[(2S)-2-(trifluoromethyl)piperazine-1-carbonyl]-4,5-dihydrobenzo[g]indazol-8-yl]pyridine-3-carboxamide]
15.5 nM	COc1cc2c(cc1-c1cncc(C(N)=O)c1)-c1c(c(C(=O)N(C)C3CC3)nn1-c1cc(Cl)cc(Cl)c1)CC2 [Compound 8-39]
